Results published in ChEMBL document CHEMBL4831477, “Structure-Enabled Discovery of Novel Macrocyclic Inhibitors Targeting Glutaminase 1 Allosteric Binding Site” (J Med Chem, 2021).

What was measured:
HCT-116 [1] = test: Antiproliferative activity against human HCT116 cells assessed as reduction in cell viability incubated for 72 hrs by MTT assay; format: functional, cell-based; conditions: HCT-116, 72 h
MDA-MB-436 = test: Antiproliferative activity against human MDA-MB-436 cells assessed as reduction in cell viability incubated for 72 hrs by MTT assay; format: functional, cell-based; conditions: MDA-MB-436, 72 h
[2] = Distribution coefficient, logD of the compound at pH 7.4 by LC-MS based shake-flask method; format: physicochemical; conditions: octanol/water
[3] = Metabolic stability in mouse plasma assessed as compound remaining after 2 hrs by LC-MS/MS analysis; format: ADME, cell-free; conditions: read-out: Stability
[4] = Metabolic stability in human plasma assessed as compound remaining after 2 hrs by LC-MS/MS analysis; format: ADME, cell-free; conditions: read-out: Stability
[5] = Metabolic stability in human liver microsomes assessed as half life at 10 uM preincubated for 5 mins followed by NADPH addition by LC-MS/MS analysis; format: ADME, Microsome
[6] = Metabolic stability in human liver microsomes assessed as clearance at 10 uM preincubated for 5 mins followed by NADPH addition by LC-MS/MS analysis; format: ADME, Microsome; conditions: read-out: CLH
[7] = Metabolic stability in mouse liver microsomes assessed as half life at 10 uM preincubated for 5 mins followed by NADPH addition by LC-MS/MS analysis; format: ADME, Microsome
[8] = Metabolic stability in mouse liver microsomes assessed as clearance at 10 uM preincubated for 5 mins followed by NADPH addition by LC-MS/MS analysis; format: ADME, Microsome; conditions: read-out: CLH
[9] = Half life in Sprague-Dawley rat at 5 mg/kg, iv measured upto 72 hrs by LC-MS/MS analysis; format: ADME, organism-based; conditions: in vivo
[10] = Half life in Sprague-Dawley rat at 200 mg/kg, po measured upto 72 hrs by LC-MS/MS analysis; format: ADME, organism-based; conditions: in vivo
[11] = Cmax in Sprague-Dawley rat at 200 mg/kg, po measured upto 72 hrs by LC-MS/MS analysis; format: ADME, organism-based; parameters: route oral, dose 200 mg/kg, time <=72; conditions: in vivo
[12] = AUC(0 to t) in Sprague-Dawley rat at 5 mg/kg, iv measured upto 72 hrs by LC-MS/MS analysis; format: ADME, organism-based; parameters: route intravenous, dose 5 mg/kg, time <=72; conditions: in vivo
[13] = AUC(0 to t) in Sprague-Dawley rat at 200 mg/kg, po measured upto 72 hrs by LC-MS/MS analysis; format: ADME, organism-based; parameters: route oral, dose 200 mg/kg, time <=72; conditions: in vivo
[14] = AUC(0 to infinity) in Sprague-Dawley rat at 5 mg/kg, iv measured upto 72 hrs by LC-MS/MS analysis; format: ADME, organism-based; parameters: route intravenous, dose 5 mg/kg, time <=72; conditions: in vivo, 72 h
[15] = AUC(0 to infinity) in Sprague-Dawley rat at 200 mg/kg, po measured upto 72 hrs by LC-MS/MS analysis; format: ADME, organism-based; parameters: route oral, dose 200 mg/kg, time <=72; conditions: Sprague-Dawley, in vivo
[16] = Clearance in Sprague-Dawley rat at 5 mg/kg, iv measured upto 72 hrs by LC-MS/MS analysis; format: ADME, organism-based; conditions: in vivo, 5 mg/kg, 72 h
[17] = Clearance in Sprague-Dawley rat at 200 mg/kg, po measured upto 72 hrs by LC-MS/MS analysis; format: ADME, organism-based; conditions: Sprague-Dawley, in vivo
[18] = Apparent volume of distribution in Sprague-Dawley rat at 5 mg/kg, iv measured upto 72 hrs by LC-MS/MS analysis; format: ADME, organism-based; conditions: in vivo, read-out: Vz
[19] = Apparent volume of distribution in Sprague-Dawley rat at 200 mg/kg, po measured upto 72 hrs by LC-MS/MS analysis; format: ADME, organism-based; conditions: in vivo
[20] = Oral bioavailability in Sprague-Dawley rat at 200 mg/kg measured upto 72 hrs by LC-MS/MS analysis; format: ADME, organism-based; conditions: in vivo
HCT-116 [21] = test: Antitumor activity against human HCT-116 cells xenografted in BALB/c nude mouse assessed as tumor growth inhibition at 200 mg/kg, po administered twice daily measured after 28 days; format: functional; conditions: time 28 day
[22] = Toxicity in BALB/c nude mouse xenografted with human HCT-116 cells assessed as tolerability at 200 mg/kg, po administered twice daily measured after 28 days; format: organism-based; conditions: in vivo, 672 h, time 28 day
[23] = Toxicity in BALB/c nude mouse xenografted with human HCT-116 cells assessed as body weight loss at 200 mg/kg, po administered twice daily for 28 days and measured every 3 days; format: organism-based; conditions: in vivo, 672 h, time 28 day
[24] = Cmax in BALB/c nude mouse plasma xenografted with human HCT-116 cells at 200 mg/kg, po administered twice daily for 28 days; format: ADME, organism-based; parameters: route oral, time 28 day, dose 200 mg/kg
[25] = fCmax in BALB/c nude mouse plasma xenografted with human HCT-116 cells at 200 mg/kg, po administered twice daily for 28 days; format: ADME, organism-based; conditions: in vivo, 672 h, time 28 day
[26] = Free plasma protein in mouse; format: ADME, cell-free

Structure (SMILES): O=C(Cc1cccc(OC(F)(F)F)c1)Nc1ccc(CCCCc2nnc(NC(=O)Cc3ccccn3)s2)nn1
- IC50 (HCT-116 [1]): 110 nM
- IC50 (MDA-MB-436): 430 nM
- logD [2]: 2.24
- remaining at 2 h [3]: 72%
- remaining at 2 h [4]: 84%
- half-life at 10 µM [5]: 1.4 h
- microsomal CLint at 10 µM [6]: 9.7 µL/min/mg
- half-life at 10 µM [7]: 1.05 h
- microsomal CLint at 10 µM [8]: 12.3 µL/min/mg
- half-life [9]: 3.7 h
- half-life [10]: 3.2 h
- Cmax [11]: 1720 ng/mL
- AUC(0-t) at 72 h [12]: 2380 ng·h/mL
- AUC(0-t) at 72 h [13]: 18900 ng·h/mL
- AUC [14]: 2431 ng·h/mL
- AUC(0-inf) [15]: 18900 ng·h/mL
- CL [16]: 135 mL/min/kg
- CL/F [17]: 187 mL/min/kg
- Vd [18]: 26.1 L/kg
- Vz [19]: 60.9 L/kg
- bioavailability [20]: 19%
- TGI (HCT-116 [21]): 45%
- Activity [22]: Non-Toxic
- Activity [23]: Non-Toxic
- Cmax [24]: 3.01 µM
- fCmax [25]: 0.31 µM
- fraction unbound [26]: 0.103
